Source: paper PMC2967836, “Immobilization and Characterization of a Recombinant Thermostable Lipase (Pf2001) from Pyrococcus furiosus on Supports with Different Degrees of Hydrophobicity” (Enzyme Research, 2010)

Target: T1, Pf2001Δ60 (recombinant thermostable lipase Pf2001) (Pyrococcus furiosus, UniProt Q8TZJ1)
T1 construct: expressed in E. coli BL21 (DE3) pLysS; crude extract supernatant
Assay: fluorescence release of 4-methylumbelliferone (ex […] nm, em […] nm)
Type: biochemical
Conditions: crude extract of E. coli expressing the enzyme; pH 7.0, 50 mM sodium phosphate, 0.1% gum arabic, 70 °C; soluble enzyme (also measured immobilised)

T1 sequence (Q8TZJ1 entry or part of it, stated change not applied): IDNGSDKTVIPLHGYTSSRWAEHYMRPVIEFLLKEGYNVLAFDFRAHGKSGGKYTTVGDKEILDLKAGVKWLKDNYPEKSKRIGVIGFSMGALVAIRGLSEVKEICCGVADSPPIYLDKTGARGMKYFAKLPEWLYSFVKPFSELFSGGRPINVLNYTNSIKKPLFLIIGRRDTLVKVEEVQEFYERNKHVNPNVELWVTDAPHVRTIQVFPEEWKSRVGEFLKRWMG

Q: How did the “fluorescence release of 4-methylumbelliferone (ex 323 nm, em 448 nm)” value turn out when CCCCCCC(=O)Oc1ccc2c(C)cc(=O)oc2c1 [4-Methylumbelliferyl-heptanoate] was run?
A: Its value is “Enzyme activity was measured according to the method described by Prim et al”.
